Reference: publication PMC5399635 (The Journal of Pharmacology and Experimental Therapeutics, 2017)
Where two headings read alike, the source gives them in different places.

Experiments:
in vitro = conditions: human; for Papp A→B at 2 h, 10 μM: Caco-2, pH 7.4, Papp A→B; for Papp B→A at 2 h, 10 μM: Caco-2, pH 7.4, Papp B→A
other transporters = tested on: other transporters; set-up: method as in earlier work; conditions: ref 2013 AstraZeneca unpublished data; cited from earlier work
[1] = tested on: panel of more than 300 receptors, ion channels, transporters, and enzymes; experiment: Binding screen across a panel of more than 300 targets; conditions: 10 µM; apart from opioid receptors; data not shown
human δ-opioid receptor = biological target: T1, human δ-opioid receptor (Homo sapiens, UniProt P41143); experiment: [35S]GTPγS functional assay, δ-opioid receptor (CHO membranes); type: biochemical; conditions: agonist mode, relative to DPDPE 10 µM; single experiment
T1 construct: expressed in transfected cells; host or cells: CHO cells

[2] = Quantitative whole body autoradiography; type: in vivo, rat; conditions: for Concentration of radioactivity, Blood / Concentration of radioactivity, Brain / Concentration of radioactivity, Large intestine wall / Concentration of radioactivity, Liver / Concentration of radioactivity, Spinal cord / Concentration of radioactivity, Fetus (whole) / Concentration of radioactivity, Placenta / Concentration of radioactivity, Uterus: single oral 50 mg/kg
Procedure: Quantitative whole body autoradiography was conducted to track the overall distribution of a single oral dose of radiolabeled naloxegol in adult male and pregnant female rats.
Seven male Lister hooded rats (8–9 weeks old at dosing, body weight 255–290 g each) and 5 time-mated female Sprague-Dawley rats (body weight 347–392 g each) were supplied by Charles River UK Limited (Margate, Kent, UK). All animals were acclimated to the experimental unit before the study (males, 6 days; females, 13 days).
Animals were fasted overnight before dose administration. […] Male rats were administered a mean (±S.D.) of 5.62 (±0.06) MBq/kg; female rats received a mean of 5.60 (±0.03) MBq/kg.
One male rat was humanely euthanized by CO2 narcosis at 0.5, 1, 4, 24, 48, 168, and 504 hours postdose, respectively. One time-mated female rat was humanely euthanized at 0.5, 1, 4, 24, and 48 hours postdose, respectively.
After removal of the whiskers, legs, and tails, the carcasses were frozen by immersion in a mixture of solid CO2 in hexane for approximately 30 minutes and then embedded in a block of carboxymethylcellulose, which was frozen in the same way. After equilibration at approximately –20°C, sagittal sections (30 μm thick) were taken using a whole body cryomicrotome (Leica Biosystems GmbH, Nussloch, Germany). The sections were freeze dried in a chamber of the cryomicrotome before storage at ambient temperature. Carcasses were stored frozen (–20°C) until analysis. After analysis, samples were returned to storage at –20°C. Freeze-dried whole body sections were stored at room temperature.
The radioactivity present in various organs and tissues in whole body sections was determined by QWBA. After exposure, the imaging plates were scanned using a phosphorimage analyzer. Tissues and organs of interest were quantified using AIDA image analysis software (version 4.06; Raytest Isotopenmeßgeräte GmbH, Straubenhardt, Germany). For analysis, representative whole body sections were placed into close contact with phosphor screens and left for a 7-day period. A set of external standards were also exposed on each phosphor screen. These standards were prepared from blood spiked with a serial dilution of a ^14C-labeled reference solution, which was dispensed into holes drilled into a block of carboxymethylcellulose, frozen, and then sectioned in the same way as the animal samples.
After the phosphor screen was scanned, an image of the radioactivity in the sample was stored digitally. For quantitative analysis, six background areas were defined on each stored phosphor screen image. The software automatically calculated the mean background and subsequently subtracted this from all standards and tissues analyzed. A regression coefficient was derived by comparing the response of each standard with the nominal disintegrations per minute per gram over the range of radioactive concentration used and forcing the response curve through the origin. The concentrations of the standards used were in the range of 0.09 to 826.31 μg Eq/g. The response curve was linear over these concentrations and was assumed to be linear to the limit of reliable determination.
Organs or tissues from representative autoradiograms were identified and integrated. The back-calculated tissue concentrations (μg Eq/g) were then determined by the software. The limit of reliable measurement for each storage screen was calculated from the assessment of the mean background of the plate and taken to be three times the S.D. of the mean above background. At the specific activity used in this study, the limit of reliable measurement was in the range of 0.06 to 0.16 μg Eq/g.

[3] = In situ rat brain perfusion model; conditions: 30 s perfusion, test compound 20 μM, atenolol 50 μM, antipyrine 5 μM, mean ± S.D.
human µ-opioid receptor = human µ-opioid receptor (Homo sapiens, UniProt P35372); experiment: [35S]GTPγS binding, Schild-type antagonism of morphine (CHO-K1 membranes); conditions: versus morphine; pooled 3 experiments
[4] = tested on: opioid-induced constipation; set-up: method as in Chey et al., 2014; conditions: two trials, ref Chey et al., 2014, cited from earlier work
[5] = tested on: morphine-induced antinociception; experiment: Hot plate model of nociception, antagonism of morphine; conditions: Rattus norvegicus, po, read-out: ED50, antagonism of morphine analgesia
[6] = no P-gp inhibitor, mean of 3 experiments

Chain of human µ-opioid receptor (P35372 whole entry): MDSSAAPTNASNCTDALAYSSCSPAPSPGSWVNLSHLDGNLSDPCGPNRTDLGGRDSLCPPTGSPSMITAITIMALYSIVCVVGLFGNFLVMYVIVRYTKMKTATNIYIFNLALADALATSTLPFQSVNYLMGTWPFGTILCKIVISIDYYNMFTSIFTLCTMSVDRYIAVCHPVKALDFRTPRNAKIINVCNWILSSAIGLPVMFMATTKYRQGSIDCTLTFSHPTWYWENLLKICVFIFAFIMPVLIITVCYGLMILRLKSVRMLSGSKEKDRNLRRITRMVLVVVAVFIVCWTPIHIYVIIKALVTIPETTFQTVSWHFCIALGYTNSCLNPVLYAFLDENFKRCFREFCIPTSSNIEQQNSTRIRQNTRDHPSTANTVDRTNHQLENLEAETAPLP
T1 sequence (P41143 whole entry): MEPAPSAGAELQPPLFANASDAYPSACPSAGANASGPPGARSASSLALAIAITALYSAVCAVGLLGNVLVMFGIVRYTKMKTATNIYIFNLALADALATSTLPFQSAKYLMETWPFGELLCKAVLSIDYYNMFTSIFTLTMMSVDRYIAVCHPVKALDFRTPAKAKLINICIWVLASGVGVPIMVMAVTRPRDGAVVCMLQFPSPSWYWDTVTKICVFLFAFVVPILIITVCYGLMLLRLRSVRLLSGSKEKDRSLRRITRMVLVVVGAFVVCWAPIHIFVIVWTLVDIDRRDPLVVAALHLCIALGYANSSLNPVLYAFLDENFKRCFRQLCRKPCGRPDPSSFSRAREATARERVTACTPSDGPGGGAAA

Structure (SMILES): C=CCN1CC[C@]23c4c5ccc(O)c4O[C@H]2[C@@H](OCCOCCOCCOCCOCCOCCOCCOC)CC[C@@]3(O)[C@H]1C5 [Naloxegol, naloxegol]
- Papp A→B at 2 h, 10 μM (in vitro; Cyclosporin A): 1.8 ×10⁻⁶ cm/s
- Papp A→B at 2 h, 10 μM (in vitro; Elacridar, 0.5 μM): 2.3 ×10⁻⁶ cm/s
- Papp A→B at 2 h, 10 μM (in vitro; Verapamil, 100 μM): 1.3 ×10⁻⁶ cm/s
- Papp A→B at 2 h, 10 μM (in vitro; [6]): 0.7 ×10⁻⁶ cm/s
- Papp B→A at 2 h, 10 μM (in vitro; Cyclosporin A): 1.8 ×10⁻⁶ cm/s
- Papp B→A at 2 h, 10 μM (in vitro; Elacridar, 0.5 μM): 2.5 ×10⁻⁶ cm/s
- Papp B→A at 2 h, 10 μM (in vitro; Verapamil, 100 μM): 1.7 ×10⁻⁶ cm/s
- Papp B→A at 2 h, 10 μM (in vitro; [6]): 8.4 ×10⁻⁶ cm/s
- substrate status for other transporters (other transporters): not a substrate of other transporters
- inhibition of binding across panel [1]: ≤ 30%
- agonism (human δ-opioid receptor): no agonism
- Concentration of radioactivity, Blood ([2]; male rat, 0.5 h): 3.03 μg Eq/g
- Concentration of radioactivity, Brain ([2]; male rat, 0.5 h): BLQ
- Concentration of radioactivity, Large intestine wall ([2]; male rat, 0.5 h): 8.83 μg Eq/g
- Concentration of radioactivity, Liver ([2]; male rat, 0.5 h): 43.40 μg Eq/g
- Concentration of radioactivity, Spinal cord ([2]; male rat, 0.5 h): 0.06 μg Eq/g
- Concentration of radioactivity, Blood ([2]; male rat, 1 h): 4.11 μg Eq/g
- Concentration of radioactivity, Brain ([2]; male rat, 1 h): 0.21 μg Eq/g
- Concentration of radioactivity, Large intestine wall ([2]; male rat, 1 h): 14.09 μg Eq/g
- Concentration of radioactivity, Liver ([2]; male rat, 1 h): 66.49 μg Eq/g
- Concentration of radioactivity, Spinal cord ([2]; male rat, 1 h): 0.15 μg Eq/g
- Concentration of radioactivity, Blood ([2]; male rat, 4 h): 2.14 μg Eq/g
- Concentration of radioactivity, Brain ([2]; male rat, 4 h): 0.14 μg Eq/g
- Concentration of radioactivity, Large intestine wall ([2]; male rat, 4 h): 12.09 μg Eq/g
- Concentration of radioactivity, Liver ([2]; male rat, 4 h): 58.74 μg Eq/g
- Concentration of radioactivity, Liver ([2]; male rat, 24 h): 4.61 μg Eq/g
- Concentration of radioactivity, Liver ([2]; male rat, 48 h): 7.74 μg Eq/g
- Concentration of radioactivity, Liver ([2]; male rat, 168 h): 1.03 μg Eq/g
- Concentration of radioactivity, Blood ([2]; pregnant female rat, 0.5 h): 12.38 μg Eq/g
- Concentration of radioactivity, Brain ([2]; pregnant female rat, 0.5 h): 0.34 μg Eq/g
- Concentration of radioactivity, Fetus (whole) ([2]; pregnant female rat, 0.5 h): 3.10 μg Eq/g
- Concentration of radioactivity, Large intestine wall ([2]; pregnant female rat, 0.5 h): 23.61 μg Eq/g
- Concentration of radioactivity, Liver ([2]; pregnant female rat, 0.5 h): 68.67 μg Eq/g
- Concentration of radioactivity, Placenta ([2]; pregnant female rat, 0.5 h): 21.09 μg Eq/g
- Concentration of radioactivity, Spinal cord ([2]; pregnant female rat, 0.5 h): 0.24 μg Eq/g
- Concentration of radioactivity, Uterus ([2]; pregnant female rat, 0.5 h): 31.19 μg Eq/g
- Concentration of radioactivity, Blood ([2]; pregnant female rat, 1 h): 7.80 μg Eq/g
- Concentration of radioactivity, Brain ([2]; pregnant female rat, 1 h): 0.15 μg Eq/g
- Concentration of radioactivity, Fetus (whole) ([2]; pregnant female rat, 1 h): 1.99 μg Eq/g
- Concentration of radioactivity, Large intestine wall ([2]; pregnant female rat, 1 h): 25.20 μg Eq/g
- Concentration of radioactivity, Liver ([2]; pregnant female rat, 1 h): 56.01 μg Eq/g
- Concentration of radioactivity, Placenta ([2]; pregnant female rat, 1 h): 12.89 μg Eq/g
- Concentration of radioactivity, Spinal cord ([2]; pregnant female rat, 1 h): 0.10 μg Eq/g
- Concentration of radioactivity, Uterus ([2]; pregnant female rat, 1 h): 82.21 μg Eq/g
- Concentration of radioactivity, Blood ([2]; pregnant female rat, 4 h): 6.92 μg Eq/g
- Concentration of radioactivity, Brain ([2]; pregnant female rat, 4 h): 0.28 μg Eq/g
- Concentration of radioactivity, Fetus (whole) ([2]; pregnant female rat, 4 h): 2.23 μg Eq/g
- Concentration of radioactivity, Large intestine wall ([2]; pregnant female rat, 4 h): 37.45 μg Eq/g
- Concentration of radioactivity, Liver ([2]; pregnant female rat, 4 h): 58.78 μg Eq/g
- Concentration of radioactivity, Placenta ([2]; pregnant female rat, 4 h): 14.78 μg Eq/g
- Concentration of radioactivity, Spinal cord ([2]; pregnant female rat, 4 h): 0.12 μg Eq/g
- Concentration of radioactivity, Uterus ([2]; pregnant female rat, 4 h): 185.03 μg Eq/g
- Concentration of radioactivity, Fetus (whole) ([2]; pregnant female rat, 24 h): 0.17 μg Eq/g
- Concentration of radioactivity, Liver ([2]; pregnant female rat, 24 h): 4.42 μg Eq/g
- Concentration of radioactivity, Placenta ([2]; pregnant female rat, 24 h): 0.16 μg Eq/g
- Concentration of radioactivity, Uterus ([2]; pregnant female rat, 24 h): 19.04 μg Eq/g
- Concentration of radioactivity, Fetus (whole) ([2]; pregnant female rat, 48 h): BLQ
- Concentration of radioactivity, Liver ([2]; pregnant female rat, 48 h): 2.68 μg Eq/g
- Concentration of radioactivity, Placenta ([2]; pregnant female rat, 48 h): BLQ
- Concentration of radioactivity, Uterus ([2]; pregnant female rat, 48 h): 4.00 μg Eq/g
- time to elimination of radioactivity from most tissues ([2]; rat, naloxegol-derived radioactivity): ≤ 24 h
- Brain Uptake [3]: 4.1 ± 1.4 pmol/g brain/s
- Schild slope (human µ-opioid receptor): –1.03
- 12-week response rate versus placebo ([4]; 12.5 mg once daily): significantly higher than with placebo in only one trial
- 12-week response rate versus placebo ([4]; 25 mg once daily): Significantly more patients responded
- ED50 [5]: 55.4 mg/kg
